Patent US20060106085A1, “Methods and compositions using PDE4 modulators for treatment and management of central nervous system injury” (priority 2004, published 2006)

Legend:
[1] = system: TNF-α production from human PBMC; assay: LPS-induced TNF-α production from human PBMC; type: cell-based; settings: LPS 100 ng/ml, compound added 1 hour before LPS, 18-20 hours, ELISA
Protocol: Inhibition of TNF-α production following LPS-stimulation of human PBMC and human whole blood by 3-(3,4-dimethoxy-phenyl)-3-(1-oxo-1,3-dihydro-isoindol-2-yl)-propionamide is investigated in vitro (Muller et al., Bioorg. Med. Chem. Lett. 9:1625-1630, 1999). The IC50's of 3-(3,4-dimethoxy-phenyl)-3-(1-oxo-1,3-dihydro-isoindol-2-yl)-propionamide for inhibiting production of TNF-α following LPS-stimulation of PBMC and human whole blood is measured.
For example, 3-(3,4-dimethoxy-phenyl)-3-(1-oxo-1,3-dihydro-isoindol-2-yl)-propionamide was tested for the ability to inhibit LPS-induced TNF-α production from human PBMC as previously described (Muller et al. 1996, J. Med. Chem. 39:3238). PBMC from normal donors were obtained by Ficoll Hypaque (Pharmacia, Piscataway, N.J., USA) density centrifugation. Cells were cultured in RPMI (Life Technologies, Grand Island, N.Y., USA) supplemented with 10% AB±human serum (Gemini Bio-products, Woodland, Calif., USA), 2 mM L-glutamine, 100 U/ml penicillin, and 100 μg/ml streptomycin (Life Technologies).
PBMC (2×10^5 cells) were plated in 96-well flat-bottom Costar tissue culture plates (Corning, N.Y., USA) in triplicate. Cells were stimulated with LPS (Sigma, St. Louis, Mo., USA) at 100 ng/ml in the absence or presence of compounds. […]

[2] = Cardiovascular and respiratory function in anesthetized dogs; type: in vivo; settings: anesthetized Beagle dogs, 400, 800, and 1,200 mg/kg/day ascending doses, infusion through the jugular vein, compared to vehicle control
Protocol: The effects of 3-(3,4-dimethoxy-phenyl)-3-(1-oxo-1,3-dihydro-isoindol-2-yl)-propionamide on cardiovascular and respiratory function are investigated in anesthetized dogs. Two groups of Beagle dogs (2/sex/group) are used. One group receives three doses of vehicle only and the other receives three ascending doses of 3-(3,4-dimethoxy-phenyl)-3-(1-oxo-1,3-dihydro-isoindol-2-yl)-propionamide (400, 800, and 1,200 mg/kg/day). In all cases, doses of 3-(3,4-dimethoxy-phenyl)-3-(1-oxo-1,3-dihydro-isoindol-2-yl)-propionamide or vehicle are successively administered via infusion through the jugular vein separated by intervals of at least 30 minutes.

[3] = system: TNF-α production from human PBMC; assay: IL-1β-induced TNF-α production from human PBMC; type: cell-based; settings: 50 ng/ml recombinant human IL-1β, 18 hours
Protocol: During the course of inflammatory diseases, TNF-α production is often stimulated by the cytokine 1L-1β rather than by bacterially derived LPS. 3-(3,4-Dimethoxy-phenyl)-3-(1-oxo-1,3-dihydro-isoindol-2-yl)-propionamide was tested for the ability to inhibit IL-1β-induced TNF-α production from human PBMC as described above for LPS-induced TNF-α production, except that the PBMC are isolated from source leukocyte units (Sera-Tec Biologicals, North Brunswick, N.J., USA) by centrifugation on Ficoll-Paque Plus (Amersham Pharmacia, Piscataway, N.J., USA), plated in 96-well tissue culture plates at 3×10^5 cells/well in RPMI-1640 medium (BioWhittaker, Walkersville, Md., USA) containing 10% heat-inactivated fetal bovine serum (Hyclone), 2 mM L-glutamine, 100 U/ml penicillin, and […] (complete medium), pretreated with compounds at 10, 2, 0.4, 0.08, 0.016, 0.0032, 0.00064, and 0 μM in duplicate at a final DMSO concentration of 0.1% at 37° C. in a humidified incubator at 5% CO2 for 1 hour, then stimulated with 50 ng/ml recombinant human IL-1β (Endogen) for 18 hours.

[4] = system: PDE4; assay: Inhibition of PDE4 enzyme purified from U937 human monocytic cells; type: biochemical; settings: 1 μM cAMP, 30 min at 30° C.
Protocol: PDE4 enzyme was purified from U937 human monocytic cells by gel filtration chromatography as previously described (Muller et al. 1998, Bioorg. & Med Chem Lett 8:2669-2674). Phosphodiesterase reactions were carried out in 50 mM Tris HCl pH 7.5, 5 mM MgCl2, 1 μM cAMP, 10 nM [^311)-cAMP for 30 min at 30° C., terminated by boiling, treated with 1 mg/ml snake venom, and separated using AG-1×S ion exchange resin (BioRad) as described (Muller et al. 1998, Bioorg. & Med Chem Lett 8:2669-2674). Reactions consumed less than 15% of available substrate.

[5] = system: spinal cord contusion; settings: cited from earlier work

| IC50 [4] | SMILES | IC50 [1] | cardiovascular and respiratory changes [2] | IC50 [3] | locomotion ([5]; combination of rolipram with db-cAMP) | axon sparing and myelination ([5]; combined with Schwann cell grafts) | cAMP levels after spinal cord contusion ([5]; rolipram alone) |
| --- | --- | --- | --- | --- | --- | --- | --- |
| 15 µM | COc1ccc(C(CC(N)=O)N2Cc3ccccc3C2=O)cc1OC (stereo not shown) [3-(3,4-dimethoxy-phenyl)-3-(1-oxo-1,3-dihydro-isoindol-2-yl)-propionamide] | 21 µM | minimal at all doses | 16 µM | – | – | – |
| – | COc1ccc(C2CNC(=O)C2)cc1OC1CCCC1 (stereo not shown) [rolipram] | – | – | – | improved locomotion | promoted significant supraspinal and proprioceptive axon sparing and myelination | prevented the decrease of cAMP levels |
